The target in data set [1] is T1, Amine oxidase [flavin-containing] B (Homo sapiens, UniProt P27338).
T1 sequence (P27338 whole entry): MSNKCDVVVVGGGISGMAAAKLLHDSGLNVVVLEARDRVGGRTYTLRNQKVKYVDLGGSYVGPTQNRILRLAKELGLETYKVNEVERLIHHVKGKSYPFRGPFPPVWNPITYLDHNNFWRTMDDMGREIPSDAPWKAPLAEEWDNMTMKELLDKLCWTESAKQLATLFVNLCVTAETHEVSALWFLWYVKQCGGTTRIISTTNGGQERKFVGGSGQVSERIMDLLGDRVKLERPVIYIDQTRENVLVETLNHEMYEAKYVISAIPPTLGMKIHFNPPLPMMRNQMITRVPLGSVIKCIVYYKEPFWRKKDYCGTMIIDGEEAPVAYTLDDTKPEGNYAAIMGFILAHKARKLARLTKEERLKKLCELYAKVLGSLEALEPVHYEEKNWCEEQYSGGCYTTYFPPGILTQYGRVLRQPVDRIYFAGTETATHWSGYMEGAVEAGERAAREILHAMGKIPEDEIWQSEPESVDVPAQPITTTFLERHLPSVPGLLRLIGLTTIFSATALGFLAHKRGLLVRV
Put plainly: Inhibition of human microsomal MAO-B expressed in baculovirus infected BTI-TN-5B1-4 cells assessed as reduction in 4-hydroxyquinoline formation at 10 uM using kynuramine as substrate preincubated with substrate for 10 mins followed by enzyme addition by spectrophotometric analysis. To be noted: BTI-TN-5B1-4, human.

Data set [2] has as its target T2, Amine oxidase [flavin-containing] A (Homo sapiens, UniProt P21397).
T2 sequence (P21397 whole entry): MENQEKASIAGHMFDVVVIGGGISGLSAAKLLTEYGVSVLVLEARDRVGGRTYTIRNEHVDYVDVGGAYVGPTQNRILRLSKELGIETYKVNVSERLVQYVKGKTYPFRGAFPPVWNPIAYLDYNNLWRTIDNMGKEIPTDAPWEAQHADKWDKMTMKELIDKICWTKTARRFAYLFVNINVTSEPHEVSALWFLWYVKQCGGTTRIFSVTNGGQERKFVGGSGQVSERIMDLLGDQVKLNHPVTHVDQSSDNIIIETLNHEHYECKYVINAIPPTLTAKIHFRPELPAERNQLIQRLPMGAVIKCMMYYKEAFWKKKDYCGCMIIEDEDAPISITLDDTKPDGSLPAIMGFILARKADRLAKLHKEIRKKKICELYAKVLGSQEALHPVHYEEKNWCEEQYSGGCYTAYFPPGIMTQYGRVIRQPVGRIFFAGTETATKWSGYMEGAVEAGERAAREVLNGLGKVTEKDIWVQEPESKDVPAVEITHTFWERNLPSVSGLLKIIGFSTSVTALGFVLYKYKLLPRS
Conditions: BTI-TN-5B1-4, human, read-out: INH.
Description: Inhibition of human microsomal MAO-A expressed in baculovirus infected BTI-TN-5B1-4 cells assessed as reduction in 4-hydroxyquinoline formation at 10 uM using kynuramine as substrate preincubated with substrate for 10 mins followed by enzyme inhibition by spectrophotometric analysis

Data set [3] addresses T1, Amine oxidase [flavin-containing] B. Put plainly: biochemical. The format is cell-based, BTI-TN-5B1-4.
Description: Inhibition of human microsomal MAO-B expressed in baculovirus infected BTI-TN-5B1-4 cells assessed as reduction in 4-hydroxyquinoline formation using kynuramine as substrate preincubated with substrate for 10 mins followed by enzyme addition by spectrophotometric analysis
Another data set is filed under the species Homo sapiens. Nature of the data set: Selectivity index, ratio of IC50 for human microsomal MAO-A expressed in baculovirus infected […] cells to IC50 for human microsomal MAO-B expressed in baculovirus infected […] cells using kynuramine as substrate.
The nature of data set [4]: Chromatographic hydrophobicity index of compound at 250 uM at pH 7.4 by HPLC analysis. It is filed as ADME. Conditions: pH 7.4, 250 µM.
A short description of data set [5]: Retention time of compound at pH 7.4 by LC-UV analysis. Conditions: buffer. It is filed as physicochemical.

Regarding `O=C(/C=C/C=C/c1ccc2c(c1)OCO2)NCc1ccccc1`, the inhibition at 10 µM in data set [1] and in data set [2] was less than 50% throughout.

Consider `N#C/C(=C\C=C\c1ccc2c(c1)OCO2)C(=O)NCc1ccccc1`, for which the inhibition at 10 µM in data set [2] is less than 50%. Further, in data set [3], the IC50 worked out at 0.471 µM. In addition, the Ratio IC50 in the data set filed under Homo sapiens was more than 21.

Compound `Cn1c(=O)c2[nH]cnc2n(C)c1=O.O` [THEOPHYLLINE] showed a CHI in data set [4] of 18.19. The Retention_time in data set [5] worked out at 7.31 min.

`NC(=O)N1c2ccccc2C=Cc2ccccc21` [CARBAMAZEPINE] returned a CHI in data set [4] of 58.45. The compound further gave a Retention_time in data set [5] of 9.3 min.

`CCCCC(=O)c1ccccc1` [VALEROPHENONE] displayed a CHI in data set [4] of 97.67. The compound also came in with a Retention_time in data set [5] of 12.04 min.

With `N#C/C(=C\C=C\c1ccc2c(c1)OCO2)C(=O)Nc1ccccc1`, the inhibition at 10 µM in data set [1] and in data set [2] was less than 50% each time.

For `COc1cc2c(c(OC)c1OC)-c1ccc(OC)c(=O)cc1[C@@H](NC(C)=O)CC2` [COLCHICINE], in data set [4], the CHI was 44.32. The compound also returned a Retention_time in data set [5] of 8.35 min.

Consider `O=C(/C=C/C=C/c1ccc2c(c1)OCO2)OCCc1ccccc1`, for which, in data set [2], the inhibition at 10 µM is less than 50%. The compound also gave an IC50 in data set [3] of 0.448 µM. Also, the Ratio IC50 in the data set filed under Homo sapiens is more than 22.

`N#C/C(=C\C=C\c1ccc2c(c1)OCO2)C(=O)Oc1ccccc1`: in data set [2], the inhibition at 10 µM is less than 50%. For the same compound, the IC50 in data set [3] was found to be 0.215 µM. The Ratio IC50 in the data set filed under Homo sapiens is more than 47.

Turning to `N#C/C(=C\C=C\c1ccc2c(c1)OCO2)C(=O)O`, the inhibition at 10 µM in data set [1] and in data set [2] was less than 50% throughout.

In turn, `CCCC(=O)c1ccccc1` [BUTYROPHENONE] returned a CHI in data set [4] of 88.49. Also, in data set [5], the Retention_time amounted to 11.32 min.

Regarding `O=C(/C=C/C=C/c1ccc2c(c1)OCO2)Nc1ccccc1`, the inhibition at 10 µM in data set [1] and in data set [2] was less than 50% in each case.

For the compound `O=C(O)/C=C/C=C/c1ccc2c(c1)OCO2` [PIPERIC ACID], the inhibition at 10 µM in data set [1] and in data set [2] was less than 50% each time.

Take `Cn1c(=O)c2c(ncn2C)n(C)c1=O` [CAFFEINE]: the CHI in data set [4] turned out to be 24.12. The same compound yielded a Retention_time in data set [5] of 7.56 min.

Consider `O=C(/C=C/C=C/c1ccc2c(c1)OCO2)NCCc1ccccc1`, for which the inhibition at 10 µM in data set [1] and in data set [2] was less than 50% throughout.

`c1ccc2[nH]cnc2c1` [BENZIMIDAZOLE]: in data set [4], the CHI is 30.71. In addition, in data set [5], the Retention_time worked out at 8 min.

`c1ccc2[nH]ccc2c1` [INDOLE] registered a CHI in data set [4] of 69.15. In data set [5], this compound showed a Retention_time of 10.27 min.

Consider `CC(=O)Nc1ccc(O)cc1` [ACETAMINOPHEN], for which, in data set [4], the CHI is recorded as 20.59. The compound further yielded a Retention_time in data set [5] of 7.45 min.

On to `N#C/C(=C\C=C\c1ccc2c(c1)OCO2)C(=O)NCCc1ccccc1`, for which the inhibition at 10 µM in data set [1] and in data set [2] was less than 50% throughout.

In the case of `CCC(=O)c1ccccc1` [PROPIOPHENONE], the CHI in data set [4] stood at 78.41. The Retention_time in data set [5] was 10.63 min.

In the case of `CCCCCCC(=O)c1ccccc1`, the CHI in data set [4] is 111.8. In data set [5], the Retention_time stood at 13.67 min.

By IC50 is commonly meant the concentration needed to halve the response being measured. Read a low IC50 as greater potency.

The values are drawn from ChEMBL document CHEMBL4312023, “Design of novel monoamine oxidase-B inhibitors based on piperine scaffold: Structure-activity-toxicity, drug-likeness and efflux transport studies” (Eur J Med Chem, 2020).
